The subject of one assay is platelets. In words: Flow cytometry assay of platelet degranulation (P-Selectin surface expression in PRP). The settings on record: for P-Selectin expression reduction: PRP pre-incubated with compound (100 µM), then CRP-XL (1 µg/mL), % ±SEM normalized to CRP-XL-treated vehicle PRP. It is filed as cell-based, human. The procedure:
Platelet Degranulation Studies of Derivatives. Concurrent with the β-Arrestin recruitment potency optimization, the compounds were also tested and developed according to their functional activity. To determine the ability of a compound to modulate platelets, P-Selectin surface expression was measured. P-Selectin is a surface protein involved in cell adhesion mechanisms and can be found on activated platelets. After induction of platelet aggregation in platelet-rich plasma (PRP), treatment with the respective compound should therefore lead to a significant reduction in P-Selectin expression. […]. […]. Similarly, platelet degranulation potency was highly sensitive toward "linker"-changes (Structure C, Table 1). A distinct trend could not be registered. […]. Flow Cytometry Assay. The inhibition of platelet degranulation was determined via flow cytometry experiments. Platelets were treated with collagen-related peptide (CRP-XL, CambCol Laboratories, Cambridge, UK) and the platelets' activation state was determined (Geue, S.; Aurbach, K.; Manke, M.-C.; Manukjan, G.; Münzer, P.; Stegner, D.; Brähler, C.; Walker-Allgaier, B.; Märklin, M.; Borst, C. E.; Quintanilla-Fend, L.; Rath, D.; Geisler, T.; Salih, H. R.; Seizer, P.; Lang, F.; Nieswandt, B.; Gawaz, M.; Schulze, H.; Pleines, I.; Borst, O. Pivotal role of pdk1 in megakaryocyte cytoskeletal dynamics and polarization during platelet biogenesis. Blood 2019, 134, 1847-1858; and Malehmir, M.; Pfister, D.; Gallage, S.; Szydlowska, M.; Inverso, D.; Kotsiliti, E.; Leone, V.; Peiseler, M.; Surewaard, B. G. J.; Rath, D.; Ali, A.; Wolf, M. J.; Drescher, H.; Healy, M. E.; Dauch, D.; Kroy, D.; Krenkel, O.; Kohlhepp, M.; Engleitner, T.; Olkus, A.; Sijmonsma, T.; Volz, J.; Deppermann, C.; Stegner, D.; Helbling, P.; Nombela-Arrieta, C.; Rafiei, A.; Hinterleitner, M.; Rail, M.; Baku, F.; Borst, O.; Wilson, C. L.; Leslie, J.; O'Connor, T.; Wes-ton, C. J.; Chauhan, A.; Adams, D. H.; Sheriff, L.; Teijeiro, A.; Prinz, M.; Bogeska, R.; An-stee, N.; Bongers, M. N.; Notohamiprodjo, M.; Geisler, T.; Withers, D. J.; Ware, J.; Mann, D. A.; Augustin, H. G.; Vegiopoulos, A.; Milsom, M. D.; Rose, A. J.; Lalor, P. F.; Llovet, J. M.; Pinyol, R.; Tacke, F.; Rad, R.; Matter, M.; Djouder, N.; Kubes, P.; Knolle, P. A.; Unger, K.; Zender, L.; Nieswandt, B.; Gawaz, M.; Weber, A.; Heikenwalder, M. Platelet gpibα is a mediator and potential interventional target for nash and subsequent liver cancer. Nat. Med. 2019, 25, 641-655). Briefly, PRP was isolated from peripheral human blood collected in citrate-phosphate-dextrose solution with adenine (CPDA) and diluted with phosphate-buffered saline (PBS) (Sigma Aldrich Co., Ltd., St. Luis, Missouri, USA) supplemented with CaCl2 and MgCl2. PRP (106 platelets /sample) was preincubated with the respective compound (100 µM) for 15 min. Samples were treated with 1 µg/ml CRP-XL (CambCol Laboratories, Cambridge, UK) for 30 min at room temperature in the presence of the respective fluorochrome-conjugated antibody against P-Selectin (CD62P-FITC; Beckman Coulter, Brea, CA, USA). Subsequently, samples were fixed in 0.5% paraformaldehyde and analyzed on a FACS-Calibur flow cytometer (FACS-Caliber flow cytometer, Becton-Dickinson, East Rutherford, NJ, USA). Mean fluorescence intensity (MFI) was used as a quantitative measurement of platelet surface expression.
In general terms: In flow cytometry, cells or beads pass a laser one at a time.

A further assay has as its target T1, human ACKR3 (Homo sapiens, UniProt P25106).
T1 construct: expressed in transfected cells; host or cells: HEK293T
The assay is described as follows: ACKR3 β-Arrestin recruitment assay (NanoLuc complementation, NanoBiT) in HEK293T cells. It is filed as cell-based. The settings on record: for EC50: ACKR3, HEK293T cells, average value of three independent experiments; for Efficacy (Emax) vs CXCL12: efficacy of CXCL12 at 300 nM set as 100%, average of three independent experiments. How it is done:
ACKR3 β-Arrestin Recruitment Assay. […] T.; Encell, L. P.; Wood, K. V. Nanoluc complementation reporter optimized for accurate measurement of protein interactions in cells. […] B.; Reynders, N.; Vanderplasschen, A.; Ollert, M.; Bouvier, M.; Szpakowska, M.; Chevigné, A. Proadrenomedullin n-terminal 20 peptides (pamps) are agonists of the chemokine scavenger receptor ACKR3/CXCR7. […] The prepared cells were then treated with compounds at concentrations ranging from 0.3 nM to 100 µM. Induction of β-Arrestin recruitment to receptors was evaluated by measuring bioluminescence with a Mithras LB940 luminometer (Berthold Technologies).
All curves were fitted to data points generated from the mean of at least three independent experiments. Results with values of p < 0.05 were considered statistically significant.

Several values for one entry are separate records, joined by “and”; a condition that tells them apart may be missing. Equal values may be shown once.

The results in this text go back to patent EP4620949A1, “ACKR3 MODULATORS FOR CARDIOVASCULAR OR ANTIPLATELET THERAPY” (Eberhard Karls Universität Tübingen (Medizinische Fakultät), priority 2024, dated 2025).

The term EC50 denotes the concentration at which the effect is half-maximal. Lower therefore signals higher potency in that assay.

T1 sequence (P25106 whole entry): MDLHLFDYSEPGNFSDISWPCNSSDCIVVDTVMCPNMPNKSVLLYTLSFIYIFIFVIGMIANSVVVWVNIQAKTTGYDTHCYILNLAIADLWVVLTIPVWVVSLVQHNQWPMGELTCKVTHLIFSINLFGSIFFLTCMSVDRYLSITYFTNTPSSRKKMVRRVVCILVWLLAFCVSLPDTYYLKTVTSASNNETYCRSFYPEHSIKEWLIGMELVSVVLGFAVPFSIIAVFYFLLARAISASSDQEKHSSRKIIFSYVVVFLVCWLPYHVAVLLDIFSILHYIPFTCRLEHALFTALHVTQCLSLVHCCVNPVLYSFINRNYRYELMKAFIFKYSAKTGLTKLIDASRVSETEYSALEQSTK
T1 sequence (P49407 whole entry partner): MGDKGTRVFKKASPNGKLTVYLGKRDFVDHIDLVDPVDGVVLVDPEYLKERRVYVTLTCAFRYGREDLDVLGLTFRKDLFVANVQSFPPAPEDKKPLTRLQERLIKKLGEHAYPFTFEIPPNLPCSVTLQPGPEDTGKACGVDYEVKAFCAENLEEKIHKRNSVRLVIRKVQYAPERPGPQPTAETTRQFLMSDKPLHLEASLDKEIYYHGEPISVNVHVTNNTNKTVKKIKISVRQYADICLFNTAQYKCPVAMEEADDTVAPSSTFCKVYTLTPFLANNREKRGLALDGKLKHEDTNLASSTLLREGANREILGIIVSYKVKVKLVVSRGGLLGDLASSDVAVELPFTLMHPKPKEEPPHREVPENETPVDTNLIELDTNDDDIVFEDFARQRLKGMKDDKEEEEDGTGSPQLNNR

Turning to `CN(CCCNC(=O)c1ccc(-c2ccccc2)s1)Cc1ccccc1` [Compound 1, N-(3-(benzyl(methyl)amino)propyl)-5-phenylthiophene-2-carboxamide], in the assay with platelets, the P-Selectin expression reduction is 71% and 74±9%.

In turn, `CN(CCCNC(=O)c1ccc(Br)s1)Cc1ccccc1` [Compound 2, N-(3-(benzyl(methyl)amino)propyl)-5-bromothiophene-2-carboxamide] came in with a concentration giving a half-maximal response (EC50) on human ACKR3 of 1.62 µM. On to `CN(CCCNC(=O)c1cc2ccccc2s1)Cc1ccccc1` [Compound 3, N-(3-(benzyl(methyl)amino)propyl)benzo[b]thiophene-2-carboxamide], for which, at human ACKR3, the EC50 was determined as 0.775 µM. The same measure, in the same setting: the same measure for `CN(CCCNC(=O)c1cc2ccccc2[nH]1)Cc1ccccc1` [Compound 4, N-(3-(benzyl(methyl)amino)propyl)-1H-indole-2-carboxamide]: 2.67 µM. Regarding `CN(CCCNC(=O)c1cc2ccccc2o1)Cc1ccccc1` [Compound 5, N-(3-(benzyl(methyl)amino)propyl)benzofuran-2-carboxamide], the “functional activity (in words)” value with platelets (P-Selectin flow cytometry, "head"-scaffold compounds) is “inactive”. Further, the P-Selectin expression reduction in the assay on platelets came out at 35%. For the molecule `CN(CCCNC(=O)CSc1ccccc1)Cc1ccccc1` [Compound 7, N-(3-(benzyl(methyl)amino)propyl)-2-(phenylthio)acetamide], at human ACKR3, it took 809 µM to reach a half-maximal effect (EC50) and the “Efficacy (Emax) vs CXCL12” value is 99%.

Molecule `Cc1ccc(-c2ccc(C(=O)NCCCN(C)Cc3ccccc3)s2)cc1` [Compound 9, N-(3-(benzyl(methyl)amino)propyl)-5-(p-tolyl)thiophene-2-carboxamide] returned an EC50 at human ACKR3 of 0.576 µM. In turn, `CN(CCCNC(=O)c1ccc(-c2ccc(C(C)(C)C)cc2)s1)Cc1ccccc1` [Compound 10, N-(3-(benzyl(methyl)amino)propyl)-5-(4-(tert-butyl)phenyl)thiophene-2-carboxamide] returned an EC50 on human ACKR3 of 10.2 µM. On the same count and under the same terms, as for `CN(CCCNC(=O)c1ccc(-c2ccncc2)s1)Cc1ccccc1` [Compound 13, N-(3-(benzyl(methyl)amino)propyl)-5-(pyridin-4-yl)thiophene-2-carboxamide], the figure is 1.72 µM. As for `CN(CCCNC(=O)c1ccc(-c2ccc(F)cc2)s1)Cc1ccccc1` [Compound 14, N-(3-(benzyl(methyl)amino)propyl)-5-(4-fluorophenyl)thiophene-2-carboxamide], in the assay with platelets, the P-Selectin expression reduction is on record as 87±7%. The same measure, in the same setting: the same measure for `CN(CCCNC(=O)c1ccc(-c2ccccc2F)s1)Cc1ccccc1` [Compound 15, N-(3-(benzyl(methyl)amino)propyl)-5-(2-fluorophenyl)thiophene-2-carboxamide]: 71±11%. The molecule `CN(CCCNC(=O)c1ccc(-c2cccc(F)c2)s1)Cc1ccccc1` [Compound 16, N-(3-(benzyl(methyl)amino)propyl)-5-(3-fluorophenyl)thiophene-2-carboxamide] registered an EC50 on human ACKR3 of 0.267 µM. Further, the “more potent than 1” value on human ACKR3 (β-Arrestin recruitment potency relative to compound 1) is on record as “up to 1.5 fold”. For the molecule `CN(CCCNC(=O)c1ccc(-c2cc(F)cc(F)c2)s1)Cc1ccccc1` [Compound 17, N-(3-(benzyl(methyl)amino)propyl)-5-(3,5-difluorophenyl)thiophene-2-carboxamide], in the assay with platelets, the P-Selectin expression reduction came to 81±9%. At human ACKR3, `COc1ccc(CN(C)CCCNC(=O)c2ccc(-c3ccccc3)s2)cc1` [Compound 18, N-(3-((4-methoxybenzyl)(methyl)amino)propyl)-5-phenylthiophene-2-carboxamide] displayed an EC50 of 0.93 µM. On to `CN(CCCNC(=O)c1ccc(-c2ccccc2)s1)Cc1ccc(Br)cc1` [Compound 19, N-(3-((4-bromobenzyl)(methyl)amino)propyl)-5-phenylthiophene-2-carboxamide], for which the P-Selectin expression reduction in the assay with platelets is listed as 89±3%. Consider `CN(CCCNC(=O)c1ccc(-c2ccccc2)s1)Cc1ccc(F)cc1` [Compound 20, N-(3-((4-fluorobenzyl)(methyl)amino)propyl)-5-phenylthiophene-2-carboxamide], for which the EC50 on human ACKR3 stood at 0.37 µM. Turning to `CN(CCCNC(=O)c1ccc(-c2ccccc2)s1)Cc1ccccc1F` [Compound 21, N-(3-((2-fluorobenzyl)(methyl)amino)propyl)-5-phenylthiophene-2-carboxamide], the P-Selectin expression reduction with platelets was 40% and 40±10%.

Consider `CN(CCCNC(=O)c1ccc(-c2ccccc2)s1)Cc1cccc(F)c1` [Compound 22, N-(3-((3-fluorobenzyl)(methyl)amino)propyl)-5-phenylthiophene-2-carboxamide], for which the P-Selectin expression reduction in the assay on platelets was 66% and 66±14%. `CC(C)N(CCCNC(=O)c1ccc(-c2ccccc2)s1)Cc1ccccc1` [Compound 24, N-(3-(benzyl(isopropyl)amino)propyl)-5-phenylthiophene-2-carboxamide] showed an EC50 on human ACKR3 of 0.709 µM.

With `O=C(NCCCN(Cc1ccccc1)C1CC1)c1ccc(-c2ccccc2)s1` [Compound 25, N-(3-(benzyl(cyclopropyl)amino)propyl)-5-phenylthiophene-2-carboxamide], the P-Selectin expression reduction in the assay with platelets came out at 16±7%.

As for `CN(CCCNC(=O)c1ccc(-c2ccccc2)s1)Cc1cccc(NC(=O)c2ccc(F)cc2)c1` [Compound 36, N-(3-((3-(4-fluorobenzamido)benzyl)(methyl)amino)propyl)-5-phenylthiophene-2-carboxamide], on human ACKR3, the EC50 is 2.1 µM and 1.1 µM; the “Efficacy (Emax) vs CXCL12” value was 86%. For the molecule `CC(C)(C)NC(=O)C1CCN(CCCNC(=O)c2ccc(-c3ccccc3)s2)CC1` [Compound 37, N-(tert-butyl)-1-(3-(5-phenylthiophene-2-carboxamido)propyl)piperidine-4-carboxamide], at human ACKR3, the EC50 is 3.2 µM and 2.5 µM; the “Efficacy (Emax) vs CXCL12” value is recorded as 102%.

Molecule `CC(C)(C)OC(=O)N1CCCC(CNC(=O)c2ccc(-c3ccccc3)s2)C1` (stereo not shown) [Compound 38, tert-butyl 3-((5-phenylthiophene-2-carboxamido)methyl)piperidine-1-carboxylate] registered an EC50 on human ACKR3 of 4.68 µM. In the case of `O=C(Nc1cccc(CN2CCCN(C(=O)c3ccc(-c4ccccc4)s3)CC2)c1)c1ccc(F)cc1` [Compound 41, 4-fluoro-N-(3-((4-(5-phenylthiophene-2-carbonyl)-1,4-diazepan-1-yl)methyl)phenyl)benzamide], at human ACKR3, the EC50 was 76 µM and 89 µM; the “Efficacy (Emax) vs CXCL12” value stood at 50%. For the molecule `O=C(Nc1cccc(CNC(=O)c2ccc(-c3ccccc3)s2)c1)c1ccc(F)cc1` [Compound 43, N-(3-(4-fluorobenzamido)benzyl)-5-phenylthiophene-2-carboxamide], the EC50 at human ACKR3 is 3.35 µM. As to `CN1CCCC1CCNC(=O)c1csc(-c2ccccc2)n1` (stereo not shown) [Compound 44, N-(2-(1-methylpyrrolidin-2-yl)ethyl)-2-phenylthiazole-4-carboxamide], it took 3 µM to reach a half-maximal effect at human ACKR3 (EC50). Regarding `O=C(NCc1ccccc1)C1CCN(Cc2csc(-c3ccccc3)n2)CC1` [Compound 48, N-benzyl-1-((2-phenylthiazol-4-yl)methyl)piperidine-4-carboxamide], on human ACKR3, the EC50 was 1.5 µM and 1.1 µM; the “Efficacy (Emax) vs CXCL12” value is 110%.
